Among the test systems are MDA-MB-435; SNB-75 CNS; COLO 205 colon; OVCAR-8 ovarian; MCF7 breast; HL-60(TB) leukemia; SK-OV-3 ovarian; KM12 colon; PC-3 prostate; OVCAR-3 ovarian.
Holding throughout (test): NCI-60 cell line screen, 48 h

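Interpolation was linear, between the two tested concentrations surrounding the appropriate level; five concentrations were tested over 48 hours in 96-well plates. TGI: total growth inhibition.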

Turning to `N#CCN1CCCCCc2ccccc21`, the TGI in the experiment on MDA-MB-435, with SNB-75 CNS, with COLO 205 colon, in the experiment on OVCAR-8 ovarian, with MCF7 breast and with HL-60(TB) leukemia was greater than 100 µM in each case. For the same compound, the TGI in the experiment on SK-OV-3 ovarian and in the experiment with KM12 colon was greater than 100 µM each time.

Take `CC(=O)N1CC(C)(C)c2c1cc(C)c(O)c2C`: the TGI in the experiment on MDA-MB-435, in the experiment on COLO 205 colon, in the experiment on OVCAR-8 ovarian, in the experiment on MCF7 breast, with PC-3 prostate and in the experiment on HL-60(TB) leukemia was greater than 100 µM in each case. The TGI with SK-OV-3 ovarian, in the experiment with KM12 colon and in the experiment with OVCAR-3 ovarian was greater than 100 µM each time.

As to `C\C=C/C=C/C=C/C(=O)O`, the TGI in the experiment on SNB-75 CNS, in the experiment on COLO 205 colon, in the experiment on OVCAR-8 ovarian, in the experiment with HL-60(TB) leukemia, in the experiment on SK-OV-3 ovarian and in the experiment on KM12 colon was greater than 100 µM throughout. Moreover, the TGI in the experiment on OVCAR-3 ovarian was greater than 100 µM.

In the case of `Cc1ccc(S(=O)(=O)NC(=O)NC(Cc2ccccc2)C(=O)O)cc1` (stereo not drawn), the TGI in the experiment with SNB-75 CNS, in the experiment with COLO 205 colon, in the experiment on OVCAR-8 ovarian, in the experiment with MCF7 breast, with PC-3 prostate and in the experiment with HL-60(TB) leukemia was greater than 100 µM throughout. For the same compound, the TGI in the experiment with SK-OV-3 ovarian and in the experiment on KM12 colon was greater than 100 µM throughout.

Take `N#CN=C1c2ccccc2C(=NC#N)c2cc(CO)ccc21`: the TGI was 80.3 µM with MDA-MB-435; 60.7 µM in the experiment on SNB-75 CNS; greater than 100 µM in the experiment with OVCAR-8 ovarian; 83.1 µM in the experiment with MCF7 breast; greater than 100 µM in the experiment on PC-3 prostate; 60.7 µM in the experiment with HL-60(TB) leukemia. In addition, the TGI in the experiment with KM12 colon and in the experiment with OVCAR-3 ovarian was greater than 100 µM throughout.

With `Nc1nc2cc(CNc3ccc(C(=O)O)cc3)ccc2nc1-c1ccccc1`, the TGI in the experiment with MDA-MB-435, in the experiment on SNB-75 CNS, in the experiment with COLO 205 colon, in the experiment with OVCAR-8 ovarian, with MCF7 breast and with PC-3 prostate was greater than 100 µM throughout. The TGI in the experiment on HL-60(TB) leukemia, in the experiment on SK-OV-3 ovarian and in the experiment on OVCAR-3 ovarian was greater than 100 µM in each case.

For the compound `COc1ccc2c(c1)C1Oc3ccccc3CC1(O)CO2` (stereo not drawn), the TGI with MDA-MB-435, in the experiment with SNB-75 CNS, in the experiment on COLO 205 colon, in the experiment with OVCAR-8 ovarian, in the experiment with MCF7 breast and in the experiment on PC-3 prostate was greater than 100 µM throughout. Besides, the TGI in the experiment with SK-OV-3 ovarian, in the experiment on KM12 colon and in the experiment on OVCAR-3 ovarian was greater than 100 µM in each case.

Turning to `OCc1c2c(cc3c1CC1(C3)Cc3cc4c(c(CO)c3C1)CCC4)CCC2`, the TGI with MDA-MB-435 is 36.9 µM; in the experiment with COLO 205 colon, 42.4 µM; in the experiment with OVCAR-8 ovarian it was 38 µM; in the experiment with MCF7 breast, 44.6 µM; with PC-3 prostate it was 39.9 µM; in the experiment with HL-60(TB) leukemia it was 18.4 µM. For the same compound, the TGI was 33 µM with SK-OV-3 ovarian, 31.2 µM in the experiment with KM12 colon and 28.3 µM in the experiment on OVCAR-3 ovarian.

Consider `N#CC(c1nc2ccccc2s1)c1nc(Cl)ncc1Br` (stereo not drawn), for which the TGI is greater than 100 µM with MDA-MB-435; 71 µM with SNB-75 CNS; greater than 100 µM with COLO 205 colon; greater than 100 µM in the experiment on OVCAR-8 ovarian; greater than 100 µM in the experiment on SK-OV-3 ovarian; greater than 100 µM in the experiment on KM12 colon. For the same compound, in the experiment on OVCAR-3 ovarian, the TGI is 97.7 µM.

Turning to `CCCN=C1Nc2ccccc2[C@@H]2N(C)c3ccccc3C(C)C[C@]12C` (stereo partly drawn), the TGI in the experiment with MDA-MB-435 stood at 34 µM; in the experiment on SNB-75 CNS, 49.8 µM; in the experiment on COLO 205 colon, 38 µM; in the experiment on OVCAR-8 ovarian, 28.9 µM; with MCF7 breast, 49.3 µM; in the experiment with PC-3 prostate, 40.8 µM. The values for the TGI in the experiment with HL-60(TB) leukemia, with KM12 colon and with OVCAR-3 ovarian were 56.1 µM, 34.9 µM and 54.1 µM, respectively.

On to `CC(C)=CC(C)C(C(O)CCC1(c2ccoc2)OCCO1)S(=O)(=O)c1ccccc1` (stereo not drawn), for which the TGI in the experiment with MDA-MB-435, with SNB-75 CNS, with COLO 205 colon, in the experiment with OVCAR-8 ovarian, in the experiment on MCF7 breast and with PC-3 prostate was greater than 100 µM throughout. The TGI in the experiment on SK-OV-3 ovarian, with KM12 colon and with OVCAR-3 ovarian was greater than 100 µM throughout.

Consider `COc1ccc(/C=C2\Sc3nnc(C)n3N=C2c2cc(F)c(Cl)cc2Cl)cc1OC`, for which the TGI in the experiment with MDA-MB-435 was determined as 23.2 µM; in the experiment with COLO 205 colon, 54.3 µM; with OVCAR-8 ovarian it was 37.9 µM; in the experiment with MCF7 breast, 19.5 µM; in the experiment with PC-3 prostate, 37.7 µM; with HL-60(TB) leukemia, 96.4 µM. Besides, the TGI in the experiment with SK-OV-3 ovarian came out at 76.9 µM; in the experiment with KM12 colon, 33.1 µM; in the experiment with OVCAR-3 ovarian, 16 µM.

Take `Cc1c(C)c2c(c(N)c1C#N)C(=O)N(OS(=O)(=O)c1ccccc1)C2=O`: the TGI was 58.8 µM with MDA-MB-435; greater than 100 µM in the experiment on SNB-75 CNS; 45.3 µM with COLO 205 colon; 38.6 µM with OVCAR-8 ovarian; greater than 100 µM with MCF7 breast; greater than 100 µM with PC-3 prostate. For the same compound, the TGI is greater than 100 µM in the experiment on HL-60(TB) leukemia, greater than 100 µM in the experiment with KM12 colon and 59.8 µM with OVCAR-3 ovarian.

As to `c1nncn1C12C3C4C5C3C1C5C42` (stereo not drawn), the TGI in the experiment on MDA-MB-435, in the experiment with SNB-75 CNS, in the experiment on COLO 205 colon, in the experiment with OVCAR-8 ovarian, with MCF7 breast and with PC-3 prostate was greater than 100 µM each time. The TGI with HL-60(TB) leukemia, in the experiment with SK-OV-3 ovarian and in the experiment on KM12 colon was greater than 100 µM in each case.

On to `Cc1ccc(C(=O)Cc2nc3ncccc3[nH]c2=O)cc1`, for which the TGI in the experiment with MDA-MB-435 is 39.8 µM; in the experiment on COLO 205 colon, greater than 100 µM; in the experiment on OVCAR-8 ovarian, 53.1 µM; with MCF7 breast it was greater than 100 µM; with PC-3 prostate it was greater than 100 µM; in the experiment with HL-60(TB) leukemia, greater than 100 µM. Besides, the values for the TGI with SK-OV-3 ovarian, in the experiment on KM12 colon and with OVCAR-3 ovarian were 45.4 µM, greater than 100 µM and greater than 100 µM, respectively.

The record behind these values is PubChem BioAssay (NCI).
